Drawing on patent US9468642B2, “Imidazopyrazines” (BAYER INTELLECTUAL PROPERTY GMBH, priority 2011, dated 2016), this text covers IC50 for 33 compounds.

The target in this test is human kinase Mps-1 (Homo sapiens (Human), UniProt P33981). In words: Mps-1 Kinase Assay (TR-FRET). The class given is biochemical. The note with it: N-terminally GST-tagged human full length recombinant Mps-1; 10 μM ATP; 1 μM peptide substrate; 60 min at 22° C.; read-out: Mps1 IC50. The protocol: The human kinase Mps-1 phosphorylates a biotinylated substrate peptide. Detection of the phosphorylated product is achieved by time-resolved fluorescence resonance energy transfer (TR-FRET) from Europium-labelled anti-phospho-Serine/Threonine antibody as donor to streptavidin labelled with cross-linked allophycocyanin (SA-XLent) as acceptor. Compounds are tested for their inhibition of the kinase activity.
Chain of human kinase Mps-1 (P33981 whole entry): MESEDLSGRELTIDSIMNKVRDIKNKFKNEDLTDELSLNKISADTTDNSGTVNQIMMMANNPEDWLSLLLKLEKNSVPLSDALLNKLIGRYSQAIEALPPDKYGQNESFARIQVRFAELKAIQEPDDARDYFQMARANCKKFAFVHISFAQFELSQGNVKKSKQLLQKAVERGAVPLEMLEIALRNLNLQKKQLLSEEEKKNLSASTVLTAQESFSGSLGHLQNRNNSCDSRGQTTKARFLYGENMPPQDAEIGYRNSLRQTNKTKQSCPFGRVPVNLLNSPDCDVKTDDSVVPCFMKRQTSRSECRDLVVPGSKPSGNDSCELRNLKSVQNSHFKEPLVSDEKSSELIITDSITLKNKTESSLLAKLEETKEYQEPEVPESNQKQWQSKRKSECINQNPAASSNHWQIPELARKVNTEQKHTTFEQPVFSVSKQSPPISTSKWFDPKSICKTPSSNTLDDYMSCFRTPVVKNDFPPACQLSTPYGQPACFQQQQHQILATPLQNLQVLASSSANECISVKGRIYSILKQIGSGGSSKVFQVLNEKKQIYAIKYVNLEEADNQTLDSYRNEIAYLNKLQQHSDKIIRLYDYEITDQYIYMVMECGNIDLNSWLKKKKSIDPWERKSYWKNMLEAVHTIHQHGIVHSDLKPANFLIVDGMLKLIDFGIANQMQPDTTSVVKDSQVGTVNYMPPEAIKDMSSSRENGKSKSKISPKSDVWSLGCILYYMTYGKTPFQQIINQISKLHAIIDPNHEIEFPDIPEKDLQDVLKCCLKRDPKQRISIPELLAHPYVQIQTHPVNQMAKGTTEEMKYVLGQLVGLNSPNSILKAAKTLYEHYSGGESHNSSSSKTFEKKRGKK
N-terminally GST-tagged human full length recombinant Mps-1 kinase (purchased from Invitrogen, Karslruhe, Germany, cat. no PV4071) was used. As substrate for the kinase reaction a biotinylated peptide of the amino-acid sequence […] (C-terminus in amide form, purchased from Biosynthan GmbH, Berlin) was used.
The concentration of Mps-1 in the assay was adjusted to the activity of the enzyme lot and was chosen appropriate to have the assay in the linear range, typical enzyme concentrations were in the range of about 1 nM (final conc. in the 5 μl assay volume).
The resulting mixture was incubated 1 h at 22° C. to allow the binding of the phosphorylated peptide to the anti-phospho(Ser/Thr)-Europium-antibody. Subsequently the amount of phosphorylated substrate was evaluated by measurement of the resonance energy transfer from the Europium-labelled anti-phospho(Ser/Thr) antibody to the Streptavidin-XLent.

The term IC50 denotes the midpoint of a concentration-inhibition curve. For `O=C(NC1CC1)c1ccc(-c2cnc3c(S(=O)(=O)Cc4ccco4)nc(-c4ccccc4)cn23)cc1` [Example 28B, N-cyclopropyl-4-{8-[(2-furylmethyl)sulfonyl]-6-phenylimidazo[1,2-a]pyrazin-3-yl}benzamide], the IC50 turned out to be 7.1 nM.
For “(1R or 1S)-1-(4-{3-[4-(2-cyclopropyl-1H-imidazol-5-yl)phenyl]-8-(methylsulfanyl)imidazo[1,2-a]pyrazin-6-yl}phenyl)ethanol [Example 34B]” the value was 58.2 nM.
The same measure for `O=C(NC1CC1)c1ccc(-c2cnc3c(SCCCCO)nc(-c4ccccc4)cn23)cc1` [Example 35, N-cyclopropyl-4-{8-[(4-hydroxybutyl)sulfanyl]-6-phenylimidazo[1,2-a]pyrazin-3-yl}benzamide]: 3.7 nM; for `CCCCSc1nc(-c2ccccc2)cn2c(-c3ccc(C(=O)NC4CC4)cc3)cnc12` [Example 8, 4-[8-(Butylsulfanyl)-6-phenylimidazo[1,2-a]pyrazin-3-yl]-N-cyclopropylbenzamide]: 26.3 nM; for `CCS(=O)(=O)c1nc(-c2ccccc2)cn2c(-c3ccc(C(=O)NC4CC4)cc3)cnc12` [Example 5B, N-Cyclopropyl-4-[8-(ethylsulfonyl)-6-phenylimidazo[1,2-a]pyrazin-3-yl]benzamide]: 7.7 nM.
For `CCCS(=O)(=O)c1nc(-c2ccccc2)cn2c(-c3ccc(C(=O)NC4CC4)cc3)cnc12` [Example 7B, N-Cyclopropyl-4-[6-phenyl-8-(propylsulfonyl)imidazo[1,2-a]pyrazin-3-yl]benzamide] the value was 10.1 nM; for `O=C(NC1CC1)c1ccc(-c2cnc3c([S+]([O-])CC(F)(F)F)nc(-c4ccccc4)cn23)cc1` (racemic) [Example 26A, (RS) N-cyclopropyl-4-{6-phenyl-8-[(2,2,2-trifluoroethyl)sulfinyl]imidazo[1,2-a]pyrazin-3-yl}benzamide], 6.2 nM; for `CC(C)CSc1nc(-c2ccccc2)cn2c(-c3ccc(C(=O)NC4CC4)cc3)cnc12` [Example 21, N-cyclopropyl-4-[8-(isobutylsulfanyl)-6-phenylimidazo[1,2-a]pyrazin-3-yl]benzamide], 13.2 nM.
In the case of `O=C(NC1CC1)c1ccc(-c2cnc3c(SCC(F)(F)F)nc(-c4ccccc4)cn23)cc1` [Example 25, N-cyclopropyl-4-{6-phenyl-8-[(2,2,2-trifluoroethyl)sulfanyl]imidazo[1,2-a]pyrazin-3-yl}benzamide], the IC50 stood at 26.3 nM.
The same measure for `CC(C)S(=O)(=O)c1nc(-c2ccccc2)cn2c(-c3ccc(C(=O)NC4CC4)cc3)cnc12` [Example 20B, N-cyclopropyl-4-[8-(isopropylsulfonyl)-6-phenylimidazo[1,2-a]pyrazin-3-yl]benzamide]: 13.9 nM; for `CCCCS(=O)(=O)c1nc(-c2ccccc2)cn2c(-c3ccc(C(=O)NC4CC4)cc3)cnc12` [Example 9B, 4-[8-(Butylsulfonyl)-6-phenylimidazo[1,2-a]pyrazin-3-yl]-N-cyclopropylbenzamide]: 14 nM; for `CCSc1nc(-c2ccccc2)cn2c(-c3ccc(C(=O)NC4CC4)cc3)cnc12` [Example 4, N-Cyclopropyl-4-[8-(ethylsulfanyl)-6-phenylimidazo[1,2-a]pyrazin-3-yl]benzamide]: 22.2 nM.
For `CSc1nc(-c2ccccc2)cn2c(-c3ccc(-c4cnc(C5CC5)[nH]4)cc3)cnc12` [Example 29, 3-[4-(2-cyclopropyl-1H-imidazol-5-yl)phenyl]-8-(methylsulfanyl)-6-phenylimidazo[1,2-a]pyrazine] the value was 544 nM; for `CC(C)(C)OC(=O)NCCSc1nc(-c2ccccc2)cn2c(-c3ccc(C(=O)NC4CC4)cc3)cnc12` [Example 16, tert-butyl [2-({3-[4-(cyclopropylcarbamoyl)phenyl]-6-phenylimidazo[1,2-a]pyrazin-8-yl}sulfanyl)ethyl]carbamate], 67.6 nM.
The same measure for `CC(=O)NCCSc1nc(-c2ccccc2)cn2c(-c3ccc(C(=O)NC4CC4)cc3)cnc12` [Example 33]: 19.9 nM.
For the compound `O=C(NC1CC1)c1ccc(-c2cnc3c(SCc4ccco4)nc(-c4ccccc4)cn23)cc1` [Example 27, N-cyclopropyl-4-{8-[(2-furylmethyl)sulfanyl]-6-phenylimidazo[1,2-a]pyrazin-3-yl}benzamide], the IC50 was determined as 40.8 nM.
The same measure for `CCC[S+]([O-])c1nc(-c2ccccc2)cn2c(-c3ccc(C(=O)NC4CC4)cc3)cnc12` (racemic) [Example 7A, (RS) N-Cyclopropyl-4-[6-phenyl-8-(propylsulfinyl)imidazo[1,2-a]pyrazin-3-yl]benzamide]: 20 nM; for `O=C(NC1CC1)c1ccc(-c2cnc3c(S(=O)(=O)CC(F)(F)F)nc(-c4ccccc4)cn23)cc1` [Example 26B, N-cyclopropyl-4-{6-phenyl-8-[(2,2,2-trifluoroethyl)sulfonyl]imidazo[1,2-a]pyrazin-3-yl}benzamide]: 8.1 nM.
Regarding `CS(=O)(=NC(=O)C(F)(F)F)c1nc(-c2ccccc2)cn2c(-c3ccc(C(=O)NC4CC4)cc3)cnc12` (racemic) [Example 15, (RS) N-cyclopropyl-4-{8-[S-methyl-N-(trifluoroacetyl)sulfonimidoyl]-6-phenylimidazo[1,2-a]pyrazin-3-yl}benzamide], the IC50 turned out to be 5.2 nM.
For `CC(C)(C)CCSc1nc(-c2ccccc2)cn2c(-c3ccc(C(=O)NC4CC4)cc3)cnc12` [Example 10, N-Cyclopropyl-4-{8-[(3,3-dimethylbutyl)sulfanyl]-6-phenylimidazo[1,2-a]pyrazin-3-yl}benzamide] the value was 85.1 nM.
For `CCCCCSc1nc(-c2ccccc2)cn2c(-c3ccc(C(=O)NC4CC4)cc3)cnc12` [Example 17, N-cyclopropyl-4-[8-(pentylsulfanyl)-6-phenylimidazo[1,2-a]pyrazin-3-yl]benzamide] the value was 79.8 nM; for `C[S+]([O-])c1nc(-c2ccccc2)cn2c(-c3ccc(C(=O)NC4CC4)cc3)cnc12` (racemic) [Example 3B, (RS)—N-cyclopropyl-4-[8-(methylsulfinyl)-6-phenylimidazo[1,2-a]pyrazin-3-yl]benzamide], 8.9 nM; for `CC(C)CC[S+]([O-])c1nc(-c2ccccc2)cn2c(-c3ccc(C(=O)NC4CC4)cc3)cnc12` (racemic) [Example 24A, (RS) N-cyclopropyl-4-{8-[(3-methylbutyl)sulfinyl]-6-phenylimidazo[1,2-a]pyrazin-3-yl}benzamide], 14.5 nM.
The same measure for `CSc1nc(Br)cn2c(-c3ccc(C(=O)NC4CC4)cc3)cnc12` [Example 1, 4-[6-Bromo-8-(methylsulfanyl)imidazo[1,2-a]pyrazin-3-yl]-N-cyclopropylbenzamide]: 607 nM; for `O=C(NC1CC1)c1ccc(-c2cnc3c(S(=O)(=O)CCCCO)nc(-c4ccccc4)cn23)cc1` [Example 36, N-cyclopropyl-4-{8-[(4-hydroxybutyl)sulfonyl]-6-phenylimidazo[1,2-a]pyrazin-3-yl}benzamide]: 5.1 nM; for `CC(C)C[S+]([O-])c1nc(-c2ccccc2)cn2c(-c3ccc(C(=O)NC4CC4)cc3)cnc12` (racemic) [Example 22A, (RS) N-cyclopropyl-4-[8-(isobutylsulfinyl)-6-phenylimidazo[1,2-a]pyrazin-3-yl]benzamide]: 12.7 nM.
In the case of `CC(C)(C)CCS(=O)(=O)c1nc(-c2ccccc2)cn2c(-c3ccc(C(=O)NC4CC4)cc3)cnc12` [Example 11B, N-Cyclopropyl-4-{8-[(3,3-dimethylbutyl)sulfonyl]-6-phenylimidazo[1,2-a]pyrazin-3-yl}benzamide], the IC50 was 4.3 nM.
The same measure for `O=C(NC1CC1)c1ccc(-c2cnc3c(SCC4CCCO4)nc(-c4ccccc4)cn23)cc1` (racemic) [Example 12, (RS) N-Cyclopropyl-4-{6-phenyl-8-[(tetrahydrofuran-2-ylmethyl)sulfanyl]imidazo[1,2-a]pyrazin-3-yl}benzamide]: 8 nM.
For `CC(C)Sc1nc(-c2ccccc2)cn2c(-c3ccc(C(=O)NC4CC4)cc3)cnc12` [Example 19, N-cyclopropyl-4-[8-(isopropylsulfanyl)-6-phenylimidazo[1,2-a]pyrazin-3-yl]benzamide] the value was 22.3 nM; for `CC(C)CCSc1nc(-c2ccccc2)cn2c(-c3ccc(C(=O)NC4CC4)cc3)cnc12` [Example 23, N-cyclopropyl-4-{8-[(3-methylbutyl)sulfanyl]-6-phenylimidazo[1,2-a]pyrazin-3-yl}benzamide], 25.2 nM.
The same measure for `C=Cc1ccc(-c2cn3c(-c4ccc(-c5cnc(C6CC6)[nH]5)cc4)cnc3c(SC)n2)cc1` [Example 30, 3-[4-(2-cyclopropyl-1H-imidazol-5-yl)phenyl]-8-(methylsulfanyl)-6-(4-vinylphenyl)imidazo[1,2-a]pyrazine]: 3100 nM.
As to `CCCCCS(=O)(=O)c1nc(-c2ccccc2)cn2c(-c3ccc(C(=O)NC4CC4)cc3)cnc12` [Example 18B, N-cyclopropyl-4-[8-(pentylsulfonyl)-6-phenylimidazo[1,2-a]pyrazin-3-yl]benzamide], the IC50 was 7.5 nM.
The same measure for `CC(C)CS(=O)(=O)c1nc(-c2ccccc2)cn2c(-c3ccc(C(=O)NC4CC4)cc3)cnc12` [Example 22B, N-cyclopropyl-4-[8-(isobutylsulfonyl)-6-phenylimidazo[1,2-a]pyrazin-3-yl]benzamide]: 6.4 nM.
